Laboratory results: patent US20250066369A1, “BICYCLIC PHTHALAZIN-1(2H)-ONE DERIVATIVES AND RELATED USES” (NodThera Limited, priority 2022, published 2025)
pIC50: −log10 of the molar value.

Tested on: IL-1β release upon NLRP3 activation in peripheral blood mononuclear cells (PBMC)
Test: PBMC IC50 determination assay: inhibition of IL-1β release upon NLRP3 activation
Format: cell-based
Conditions: PBMC, PBMC primed with LPS 3 h, compound 30 min, stimulated with ATP (5 mM) or nigericin (10 μM) 1 h; IL-1β by ELISA (Protocol A) or HTRF (Protocol B)
Outline: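 Human PBMC from buffy coats were primed 3 h with LPS (1 μg/mL in Protocol B), given compound for 30 min, then stimulated 1 h with ATP (5 mM) or nigericin (10 μM; Protocol A only). Released IL-1β was quantified by ELISA at 450 nm (Protocol A) or HTRF at […] (Protocol B).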

Compound | pIC50
CCc1nn(CC(=O)Nc2ncccn2)c(=O)c2sc(NC)cc12 [Compound 114, 2-[4-ethyl-2-(methylamino)-7-oxo-6H,7H-thieno[2,3-d]pyridazin-6-yl]-N-(pyrimidin-2-yl)acetamide] | 6.00 to 7.00
Cc1cc2c(C)nn(CC(=O)Nc3ncccn3)c(=O)c2s1 [Compound 117, 2-{2,4-Dimethyl-7-oxo-6H,7H-thieno[2,3-d]pyridazin-6-yl}-N-(pyrimidin-2-yl)acetamide] | 5.52 to 6.00
CCc1ccc2c(=O)n(CC(=O)Nc3ncc(F)cn3)nc(C(C)C)c2n1 [Compound 43] | 6.00 to 7.00
Cc1nc(NC(=O)Cn2nc(C(C)C)c3nc(C4CC4)ccc3c2=O)ns1 [Compound 26, 2-(2-Cyclopropyl-8-isopropyl-5-oxo-pyrido[2,3-d]pyridazin-6-yl)-N-(5-methyl-1,2,4-thiadiazol-3-yl)acetamide] | 6.00 to 7.00
Cc1nn(CC(=O)Nc2ncco2)c(=O)c2cc(C3CC3)oc12 [Compound 87, 2-{2-cyclopropyl-7-methyl-4-oxo-4H,5H-furo[2,3-d]pyridazin-5-yl}-N-(1,3-oxazol-2-yl)acetamide] | 5.52 to 6.00
CC(C)c1nn(CC(=O)N[C@@H]2CCCN(C3CCC3)C2)c(=O)c2sc(Br)cc12 [Compound 29, 2-(2-Bromo-4-isopropyl-7-oxo-thieno[2,3-d]pyridazin-6-yl)-N-[(3R)-1-cyclobutyl-3-piperidyl]acetamide] | 6.00 to 7.00
CC(C)c1nn(CC(=O)Nc2ncc(F)cn2)c(=O)c2sc(Cl)nc12 [Compound 61] | 5.52 to 6.00
CC(C)c1nn(CC(=O)N[C@@H]2CCCN(C3CC3)C2)c(=O)c2ncn(C)c12 [Compound 14, N-[(3R)-1-Cyclopropyl-3-piperidyl]-2-(7-isopropyl-1-methyl-4-oxo-imidazo[4,5-d]pyridazin-5-yl)acetamide] | 4.30 to 5.00
CC(C)c1nn(CC(=O)Nc2ncc(F)cn2)c(=O)c2cc(Cl)sc12 [Compound 59, 2-(2-Chloro-7-isopropyl-4-oxothieno[2,3-d]pyridazin-5(4H)-yl)-N-(5-fluoropyrimidin-2-yl)acetamide] | 6.00 to 7.00
COc1cc2c(=O)n(CC(=O)Nc3ncccn3)nc(C(C)C)c2o1 [Compound 108, 2-[2-Methoxy-4-oxo-7-(propan-2-yl)-4H,5H-furo[2,3-d]pyridazin-5-yl]-N-(pyrimidin-2-yl)acetamide] | 5.00 to 5.52
Cc1cnc(NC(=O)Cn2nc(C)c3oc(C4CC4)cc3c2=O)nc1 [Compound 83, 2-{2-Cyclopropyl-7-methyl-4-oxo-4H,5H-furo[2,3-d]pyridazin-5-yl}-N-(5-methylpyrimidin-2-yl)acetamide] | 6.00 to 7.00
CC(C)c1nn(CC(=O)N[C@@H]2CCCN(C3CC3)C2)c(=O)c2cnn(C)c12 [Compound 2, N-[(3R)-1-Cyclopropyl-3-piperidyl]-2-(7-isopropyl-1-methyl-4-oxo-pyrazolo[3,4-d]pyridazin-5-yl)acetamide] | 5.52 to 6.00
CCc1nn(CC(=O)Nc2ncccn2)c(=O)c2sc(C)cc12 [Compound 116] | 5.52 to 6.00
CCn1cc2c(=O)n(CC(=O)N[C@@H]3CCCN(C)C3)nc(C(C)C)c2n1 [Compound 6, 2-(2-Ethyl-7-isopropyl-4-oxo-pyrazolo[3,4-d]pyridazin-5-yl)-N-[(3R)-1-methyl-3-piperidyl]acetamide] | 4.30 to 5.00
Cc1nn(CC(=O)Nc2ccc3nncn3c2)c(=O)c2cc(C3CC3)oc12 [Compound 103, 2-{2-Cyclopropyl-7-methyl-4-oxo-4H,5H-furo[2,3-d]pyridazin-5-yl}-N-{[1,2,4]triazolo[4,3-a]pyridin-6-yl}acetamide] | 5.52 to 6.00
CC(C)c1nn(CC(=O)N[C@@H]2CCCN(C3CCC3)C2)c(=O)c2sc(C#N)cc12 [Compound 30, 2-(2-Cyano-4-isopropyl-7-oxo-thieno[2,3-d]pyridazin-6-yl)-N-[(3R)-1-cyclobutyl-3-piperidyl]acetamide] | 5.00 to 5.52
CC(C)c1nn(CC(=O)Nc2ncccn2)c(=O)c2cn(C3CC3)nc12 [Compound 65, 2-(2-Cyclopropyl-7-isopropyl-4-oxo-2,4-dihydro-5H-pyrazolo[3,4-d]pyridazin-5-yl)-N-(pyrimidin-2-yl)acetamide] | 6.00 to 7.00
CCNc1cc2c(C(C)C)nn(CC(=O)Nc3ncccn3)c(=O)c2s1 [Compound 78, 2-(2-(Ethylamino)-4-isopropyl-7-oxothieno[2,3-d]pyridazin-6(7H)-yl)-N-(pyrimidin-2-yl)acetamide] | ≥ 7.00
